Measurements taken from US6509003B2, “Reagents for the determination of cerebral regional acetylcholinesterase activity” (Daiichi Pure Chemicals Co., Ltd., priority 1997, dated 2003).
Like-named read-outs stand apart in the source and are kept apart here.

Legend:
[1] = biological target: T1, AchE (Rattus norvegicus, UniProt P37136); assay: hydrolysis of 14C-labeled compound in 20% rat brain cortex homogenate, radio TLC, with/without BW284c51; details: for specificity for AchE in hydrolysis reaction: 14C-labeled compound, from inhibition test with BW284c51
Method: Rat brain cortex was processed into a 20% (w/v) homogenate by use of 0.9% NaCl-10 mM phosphate buffer (pH 7.4).

[2] = biological target: T2, central AchE (Rattus norvegicus, UniProt P37136); assay: radioactivity distribution in the rat brain by quantitative autoradiography after intravenous administration; details: 14C-labeled 13b, male white rat, i.v.
T2 sequence (P37136 32-614): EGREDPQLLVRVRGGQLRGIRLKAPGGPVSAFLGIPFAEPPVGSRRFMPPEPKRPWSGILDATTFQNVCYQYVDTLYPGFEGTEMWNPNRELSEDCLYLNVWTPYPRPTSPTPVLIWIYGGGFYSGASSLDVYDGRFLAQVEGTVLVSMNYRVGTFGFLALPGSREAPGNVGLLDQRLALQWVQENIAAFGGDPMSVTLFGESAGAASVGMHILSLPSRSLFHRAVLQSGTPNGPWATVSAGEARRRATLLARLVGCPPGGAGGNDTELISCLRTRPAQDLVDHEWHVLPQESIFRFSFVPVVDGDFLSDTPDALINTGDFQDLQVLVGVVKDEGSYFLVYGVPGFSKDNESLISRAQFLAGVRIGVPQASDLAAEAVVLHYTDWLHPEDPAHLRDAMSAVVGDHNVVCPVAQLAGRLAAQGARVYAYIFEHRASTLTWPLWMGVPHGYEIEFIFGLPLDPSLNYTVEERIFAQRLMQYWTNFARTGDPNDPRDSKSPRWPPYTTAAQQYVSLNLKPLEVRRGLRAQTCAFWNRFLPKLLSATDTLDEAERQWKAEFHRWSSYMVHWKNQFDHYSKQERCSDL

[3] = biological target: T2, central AchE; assay: radioactivity distribution in the rat brain by dissection method after intravenous administration; format: in vivo; set-up: from tissue; host or cells: brain of living male rats (in vivo); details: male wistar rats, i.v.
Method: After a geometrical isomer (50b) of compound No. 50 obtained in Example 8 (1) had been intravenously administered to groups of male wistar rats, radioactivity distribution in the rat brain was assayed by dissection method.

[4] = biological target: T1, AchE; format: biochemical; set-up: Cerebral cortical tissues were obtained from rats, weighed and homogenized; from tissue; host or cells: rat cerebral cortex homogenate
Method: Cerebral cortical tissues were obtained from rats, weighed and homogenized (90 mg tissue/ml) in 0.1 M phosphate buffer, pH7.4. […]

[5] = biological target: T2, central AchE; assay: radioactivity distribution in the rat brain by autoradiography after intravenous administration; format: in vivo; set-up: from tissue; host or cells: brain of living male rats (in vivo); details: male white rat, i.v.; for migration to the brain: 14C-labeled, autoradiography
[6] = immediately after administration
[7] = thirty minutes or more after administration
[8] = fifteen minutes or more after administration
[9] = thirty minutes after administration

## CC(=O)OC1CCN(C)CC1C(O)CC/C=C/I (single isomer, unassigned) [13a]
[1]; rat brain cortex homogenate
  specificity for AchE in hydrolysis reaction: 80.4%

## CC(=O)OC1CCN(C)CC1C(O)CC/C=C/I (single isomer, unassigned) [13b]
[2]; [6]
  radioactivity distribution, brain cortex: high
  radioactivity distribution, corpus striatum: low
[2]; [7]
  accumulation of radioactivity, cerebellum: low accumulation of radioactivity
  accumulation of radioactivity, striatum: high accumulation of radioactivity
[1]; rat brain cortex homogenate
  specificity for AchE in hydrolysis reaction: 91.8%
  reactivity and specificity for AchE (in words): excellent reactivity and specificity for AchE
[1]; rat, 20% (w/v) brain cortex homogenate, pH 7.4, half-life of hydrolysis, 14C-labeled (N-methyl) compound, rat brain cortex homogenate, 37°C
  half-life: ~5 min

## COCOC(CC/C=C/[123I])C1CN(C)CCC1OC(C)=O (single isomer, unassigned) [50b]
[3]; [8]
  accumulation of radioactivity, cerebellum: accumulation of radioactivity was low
  accumulation of radioactivity, striatum: high accumulation of radioactivity
[3]; [6]
  radioactivity distribution, brain cortex: high
  radioactivity distribution, striatum: low
[4]; 123I-labeled compound, rat cerebral cortical homogenate, 37°C, from inhibition by BW284c51
  specificity for AchE: 88.6%

## C=CC[N+](C)(C)c1ccc(CCC(=O)CCc2ccc([N+](C)(C)CC=C)cc2)cc1.[Br-].[Br-] [BW284c51, reference compound]
[4]; hydrolysis of 123I-labeled 50b in rat cerebral cortical homogenate
  hydrolysis on addition of BW284c51: considerably inhibited
[1]; hydrolysis of 14C-labeled compound No. 13 in rat brain cortex homogenate
  hydrolysis on addition of BW284c51: considerably inhibited

## O.[14CH3]N1CCC(C(O)/C=C/I)C(O)C1 (stereo not drawn) [compound No. 46, N-^14C-methyl-3-hydroxy-4-(l-hydroxy-3-iodo-2-propenyl)piperidine]
[5]
  migration to the brain: hardly migrated to the brain

## CC(=O)OC1CN([14CH3])CCC1C(O)/C=C/I (stereo not shown) [compound No. 47, N-^14C-methyl-3-acetoxy-4-(1-hydroxy-3-iodo-2-propenyl)piperidine]
[5]
  migration to the brain: commonly migrated to the brain
[5]; 5 minutes after administration
  radioactivity distribution, brain cortex: high
  radioactivity distribution, cerebellum: low
  radioactivity distribution, corpus striatum: somewhat high
[5]; [9]
  accumulation of radioactivity, cerebellum: low accumulation of radioactivity
  accumulation of radioactivity, corpus striatum: high accumulation of radioactivity
